Experimental data from ChEMBL document CHEMBL4342510, “Design and Synthesis of Benzene Congeners of Resolvin E2, a Proresolving Lipid Mediator, as Its Stable Equivalents” (ACS Med Chem Lett, 2020).
Activity calls are given as the source filed them. The rule behind the calls is not given here.

What was measured:
Mus musculus [1] = assay: Antiinflammatory activity against BALB/c mouse model of heat-killed Propionibacterium acnes-induced peritonitis assessed as decrease in number of neutrophils at 300 pg, ip administered 12 hrs post Propionibacterium acnes injection and measured after 12 hrs; assay type: functional, organism-based
Mus musculus [2] = assay: Antiinflammatory activity against ip dosed BALB/c mouse model of heat-killed Propionibacterium acnes-induced peritonitis assessed as decrease in number of neutrophils administered 12 hrs post Propionibacterium acnes injection and measured after 12 hrs; assay type: functional, organism-based
[3] = Metabolic stability in human liver microsomes assessed as parent compound remaining measured after 6 hrs by HPLC analysis; assay type: ADME, Microsome; settings: read-out: Stability

| Compound | inhibition (Mus musculus [1]) | inhibition (Mus musculus [2]) | remaining at 6 h [3] |
| --- | --- | --- | --- |
| CC[C@@H](O)/C=C/c1ccccc1C/C=C/[C@@H](O)CCCC(=O)O | Active | Dose-dependent effect | – |
| CC[C@@H](O)/C=C/c1cccc(C/C=C/[C@@H](O)CCCC(=O)O)c1 | inactive | – | – |
| CC[C@@H](O)/C=C/C=C\C/C=C\C/C=C\C=C\[C@@H](O)CCCC(=O)O | Active | Dose-dependent effect | < 40% |
| CC[C@@H](O)/C=C/c1ccc(C/C=C/[C@@H](O)CCCC(=O)O)cc1 | inactive | – | < 40% |
